The subject of one assay is Streptococcus fecalis. As to conditions: J. Org. Chem. 1992, 57, 3832-3835; cited from earlier work.
Assay [1] deals with Peptococcus assaccharolyticus. Particulars: Tetrahedron 1994, 50, 3415-3426; cited from earlier work.
A further assay relates to Pseudomonas aeruginosa. Particulars: cited from earlier work.
A further assay concerns Bacteroides fragilis. As to conditions: Tetrahedron 1994, 50, 3415-3426; cited from earlier work.
A further assay relates to Escherichia coli. As to conditions: cited from earlier work.
For a further assay, the system named is Clostridium perfringens. Particulars: Tetrahedron 1994, 50, 3415-3426; cited from earlier work.
The next assay has as its system Staphylococcus aureus. As to conditions: cited from earlier work.
For the next assay, the system named is LOVO-DOX. Put plainly: SRB colorimetric cell growth inhibition assay. As to conditions: for GI50 / CC50: Homo sapiens, 48 h; for CC50: read-out: LC50; for TGI: LOVO-DOX, colon (MDR), 48 hours exposure.
For a further assay, the system named is PANC1. Put plainly: SRB colorimetric cell growth inhibition assay. Particulars: for GI50 / CC50: Homo sapiens, PANC-1, 48 h; for CC50: read-out: LC50; for TGI: PANC1, pancreas, 48 hours exposure.
For the next assay, the system named is HELA. Nature of the assay: SRB colorimetric cell growth inhibition assay. Particulars: for TGI: HELA, cervix, 48 hours exposure; for GI50 / CC50: Homo sapiens, HeLa, 48 h; for CC50: read-out: LC50.
The test system of a further assay is A549. Put plainly: SRB colorimetric cell growth inhibition assay. Particulars: for TGI: A549, NSCL, 48 hours exposure; for GI50 / CC50: Homo sapiens, A549, 48 h; for CC50: read-out: LC50.
Another assay has as its system LOVO. Nature of the assay: SRB colorimetric cell growth inhibition assay. As to conditions: for GI50 / CC50: Homo sapiens, LoVo, 48 h; for CC50: read-out: LC50; for TGI: LOVO, colon, 48 hours exposure.
A further assay has as its system IGROV-ET. Put plainly: SRB colorimetric cell growth inhibition assay. As to conditions: for GI50 / CC50: Homo sapiens, 48 h; for CC50: read-out: LC50; for TGI: IGROV-ET, ovary, 48 hours exposure.
The subject of another assay is SK-BR3. Nature of the assay: SRB colorimetric cell growth inhibition assay. As to conditions: for GI50 / CC50: Homo sapiens, SK-BR-3, 48 h; for CC50: read-out: LC50; for TGI: SK-BR3, breast, 48 hours exposure.
A further assay has as its system HELA-APL. Nature of the assay: SRB colorimetric cell growth inhibition assay. As to conditions: for TGI: HELA-APL, cervix, Aplidine resistant, 48 hours exposure; for GI50 / CC50: Homo sapiens, 48 h; for CC50: read-out: LC50.
The test system of a further assay is DU-145. Put plainly: SRB colorimetric cell growth inhibition assay. As to conditions: for TGI: DU-145, prostate, 48 hours exposure; for GI50 / CC50: Homo sapiens, DU-145, 48 h; for CC50: read-out: LC50.
A further assay has as its system LN-caP. Nature of the assay: SRB colorimetric cell growth inhibition assay.
The subject of the next assay is IGROV. Put plainly: SRB colorimetric cell growth inhibition assay. Particulars: for GI50 / CC50: Homo sapiens, 48 h; for CC50: read-out: LC50; for TGI: ovary, 48 hours exposure.
A further assay has as its system SK-MEL-28. Put plainly: SRB colorimetric cell growth inhibition assay. As to conditions: for GI50 / CC50: Homo sapiens, SK-MEL-28, 48 h; for CC50: read-out: LC50; for TGI: SK-MEL-28, melanoma, 48 hours exposure.
The test system of a further assay is HT29. Nature of the assay: SRB colorimetric cell growth inhibition assay. Particulars: for TGI: HT29, colon, 48 hours exposure; for GI50 / CC50: Homo sapiens, HT-29, 48 h; for CC50: read-out: LC50.
[2] abbreviates: J. Org. Chem. 1992, 57, 3832-3835.
Setting [3] is: Tetrahedron 1994, 50, 3415-3426.

Like-named read-outs stand apart in the source and are kept apart here.

For Phloeodictine B, the MIC (as a rule, the least concentration at which growth counts as inhibited) was more than 15 µg/mL in the assay on Streptococcus fecalis; more than 30 µg/mL in assay [1]; more than 30 µg/mL with Pseudomonas aeruginosa (setting [2]); more than 30 µg/mL in the assay with Bacteroides fragilis; 30 µg/mL in the assay on Escherichia coli (setting [2]); 30 µg/mL with Escherichia coli (setting [3]). In addition, the MIC was more than 30 µg/mL in the assay on Clostridium perfringens, 3 µg/mL in the assay with Staphylococcus aureus (setting [2]) and 30 µg/mL in the assay on Staphylococcus aureus (setting [3]).

For `CCCCCCC#C/C=C\CCCCCCCC1=NCCCN1CCCCNC(=N)N` [Compound A], the GI50 (usually the concentration giving 50% growth inhibition) worked out at 1780 nM with LOVO-DOX; 535 nM in the assay with PANC1; 801 nM with HELA; 1220 nM in the assay on A549; 475 nM with LOVO; 463 nM in the assay on IGROV-ET. In addition, the GI50 in the assay with SK-BR3 was 789 nM; with HELA-APL, 540 nM; with DU-145, 424 nM; in the assay on LN-caP (Homo sapiens, LNCaP, 48 h), 333 nM; in the assay on IGROV, 579 nM; in the assay with SK-MEL-28 it was 649 nM. In the assay with HT29, the GI50 came to 1010 nM. The CC50 in the assay on LOVO-DOX is 13000 nM; in the assay on PANC1, 2910 nM; in the assay on HELA it was 1040 nM; with A549 it was 12500 nM; with LOVO it was 1410 nM; in the assay on IGROV-ET, 4420 nM. Besides, the CC50 was found to be 1810 nM in the assay with SK-BR3; 2110 nM with HELA-APL; 1830 nM in the assay with DU-145; 1370 nM with LN-caP (Homo sapiens, LNCaP, 48 h, read-out: LC50); 5310 nM with IGROV; 7660 nM in the assay with SK-MEL-28. The CC50 in the assay on HT29 came to 8420 nM. For the same molecule, the TGI in the assay on LOVO-DOX came out at 5.14E−6 Molar; with PANC1, 1.16E−6 Molar; with HELA, 2.42E−6 Molar; with A549 it was 3.61E−6 Molar; with LOVO, 8.17E−7 Molar; with IGROV-ET it was 1.26E−6 Molar. In addition, the TGI is reported as 1.20E−6 Molar with SK-BR3; 1.07E−6 Molar in the assay with HELA-APL; 8.80E−7 Molar in the assay on DU-145; 6.73E−7 Molar with LN-caP (LN-caP, prostate, 48 hours exposure); 1.53E−6 Molar in the assay on IGROV; 2.49E−6 Molar in the assay with SK-MEL-28. Also, in the assay on HT29, the TGI came to 2.98E−6 Molar.

`N=C(N)NCCCCN1CCCN=C1CCCCCCCC=O` [Compound B]: the GI50 in the assay with LOVO-DOX, with PANC1, with HELA, in the assay with A549, with LOVO and with IGROV-ET was more than 9290 nM throughout. Further, the GI50 in the assay on SK-BR3, in the assay with HELA-APL, in the assay with DU-145, in the assay on IGROV, with SK-MEL-28 and with HT29 was more than 9290 nM each time. For the same molecule, the CC50 with LOVO-DOX, in the assay with PANC1, in the assay on HELA, with A549, in the assay with LOVO and in the assay on IGROV-ET was more than 9290 nM throughout. In addition, the CC50 in the assay on SK-BR3, with HELA-APL, with DU-145, in the assay with IGROV, in the assay on SK-MEL-28 and in the assay on HT29 was more than 9290 nM in each case. Further, the TGI with LOVO-DOX, with PANC1, with HELA, in the assay on A549, in the assay with LOVO and in the assay on IGROV-ET was more than 9.29E−6 Molar in each case. For the same molecule, the TGI in the assay on SK-BR3, in the assay on HELA-APL, with DU-145, with IGROV, in the assay with SK-MEL-28 and with HT29 was more than 9.29E−6 Molar in each case.

In the case of Phloeodictine A, the MIC was 5 µg/mL in the assay on Streptococcus fecalis; 10 µg/mL in assay [1]; 10 µg/mL in the assay on Pseudomonas aeruginosa (setting [2]); 30 µg/mL in the assay on Pseudomonas aeruginosa (setting [3]); 1 µg/mL with Bacteroides fragilis; 1 µg/mL with Escherichia coli (setting [2]). For the same molecule, the MIC is 3 µg/mL in the assay with Escherichia coli (setting [3]), 30 µg/mL with Clostridium perfringens, 1 µg/mL with Staphylococcus aureus (setting [2]) and 3 µg/mL in the assay on Staphylococcus aureus (setting [3]).

The record behind these values is patent US20100216817A1, “Antitumoral Tetrahydro-Pyrimidines” (Pharma Mar SA, priority 2005, published 2010).
